# Experimental data: patent US8222247B2, “Modulators of glucocorticoid receptor, AP-1, and/or NF-kappabeta activity and use thereof” (Bristol-Myers Squibb Company, priority 2006, dated 2012)
# Like-named read-outs stand apart in the source and are kept apart here.
# Test system: AP-1 induced transcriptional activity
# Assay: Cellular Transrepressional Assay (AP-1 luciferase reporter in A549 cell, PMA activated)
# Format: cell-based
# Conditions: pAP-1-Luc; for Emax / AP-1 Max % inh (Cellular Transrepression Assay): maximum inhibition, PMA; for Emax: read-out: AP-1 Max % inh (Cellular Transrepression Assay); for EC50: 10 ng/ml PMA, 7 hours, read-out: AP-1 EC50, nM (Cellular Transrepression Assay)
# Description: Cellular Transrepressional Assay
# To measure the ability of test molecules to inhibit AP-1 induced transcriptional activity we utilized an A549 cell which was stably transfected with a plasmid containing 7×AP-1 DNA binding sites (pAP-1-Luc plasmid, Stratagene Co. La Jolla, Calif.) followed by the gene for luciferase. Cells were activated with 10 ng/ml of phorbol myristic acid (PMA) plus or minus test molecules for 7 hours. After 7 hours a luciferase reagent was added to measure luciferase enzymatic activity in the cell. After a 10 minute incubation of luciferase reagent with cells, luminescence was measured in a TopCount luminescence counter. Repression of AP-1 activity was calculated as the percentage decrease in the signal induced by PMA alone. Test molecules were analyzed in the concentration range from 0.1 nM to 40 μM. EC50s were determined by using standard curve fitting methods such as Excel fit (Microsoft Co.). An EC50 is the test molecule concentration at which there is a 50% repression of the maximal inhibition of transcription, i.e. a 50% reduction of AP-1 activity.
compound,measurement,setting,value
"C[C@@H](C(=O)Nc1nncs1)[C@@H](c1cccc(F)c1)c1ccc(Br)s1 [Example 96, (2R,3S)-3-(5-bromo-2-thienyl)-3-(3-fluorophenyl)-2-methyl-N-1,3,4-thiadiazol-2-ylpropanamide]",Emax,"Homo sapiens, A549, 7 h",27.4%
same,EC50,"Homo sapiens, A549, 7 h",71.1 nM
"CC(C(=O)Nc1nncs1)C(c1ccccc1)c1ccc(-c2ccc(C(=O)N(C)C)cc2)s1 (single isomer, unassigned) [Example 146, N,N-dimethyl-4-(5-(2-methyl-3-oxo-1-phenyl-3-(1,3,4-thiadiazol-2-ylamino)propyl)-2-thienyl)benzamide]",Emax,"Homo sapiens, A549, 7 h",59.1%
same,EC50,,14.6 nM
"CC(C)(C(=O)Nc1nccs1)C(c1ccccc1)c1ccc(N2CCOCC2)nc1 (single isomer, unassigned) [Example 21, 2,2-Dimethyl-3-(6-(4-morpholinyl)-3-pyridinyl)-3-phenyl-N-1,3-thiazol-2-ylpropanamide]",Emax,"Homo sapiens, A549, 7 h",23.9%
same,EC50,"Homo sapiens, A549, 7 h",40.5 nM
"CC(C)(C(=O)Nc1nncs1)[C@@H](c1cccc(F)c1)c1ccc(-c2ccc(C(=O)N3CCOCC3)cc2)s1 [Example 64, (3R)-3-(3-Fluorophenyl)-2,2-dimethyl-3-(5-(4-(4-morpholinylcarbonyl)phenyl)-2-thienyl)-N-1,3,4-thiadiazol-2-ylpropanamide]",Emax,"Homo sapiens, A549, 7 h",53.8%
same,EC50,"Homo sapiens, A549, 7 h",3.04 nM
"CC(C(=O)Nc1nncs1)C(c1cccc(F)c1)c1ccc(-c2ccc(C(=O)N3CCOCC3)cc2)s1 (single isomer, unassigned) [Example 101, 3-(3-fluorophenyl)-2-methyl-3-(5-(4-(4-morpholinylcarbonyl)phenyl)-2-thienyl)-N-1,3,4-thiadiazol-2-ylpropanamide]",AP-1 Max % inh (Cellular Transrepression Assay),,51.00 % inh
same,EC50,,576 nM
"CC(C(=O)Nc1nncs1)C(c1cccc(F)c1)c1ccc(-c2ccc(C(=O)N(C)C)c(Cl)c2)s1 (single isomer, unassigned) [Example 105, 2-chloro-4-(5-(1-(3-fluorophenyl)-2-methyl-3-oxo-3-(1,3,4-thiadiazol-2-ylamino)propyl)-2-thienyl)-N,N-dimethylbenzamide]",AP-1 Max % inh (Cellular Transrepression Assay),,48.50 % inh
same,EC50,,446 nM
"CC(C)Cc1ccc(-c2ccc(C(c3ccccc3)C(C)(C)C(=O)Nc3nncs3)cn2)cc1 (stereo not drawn) [Example 31, 3-(6-(4-isobutylphenyl)-3-pyridinyl)-2,2-dimethyl-3-phenyl-N-1,3,4-thiadiazol-2-ylpropanamide]",Emax,"Homo sapiens, A549, 7 h",46.8%
same,EC50,"Homo sapiens, A549, 7 h",21.5 nM
"CC(C(=O)Nc1nncs1)C(c1cccc(F)c1)c1ccc(-c2ccc(C(=O)N(C)C)cc2)s1 (single isomer, unassigned) [Example 102, 4-(5-(1-(3-fluorophenyl)-2-methyl-3-oxo-3-(1,3,4-thiadiazol-2-ylamino)propyl)-2-thienyl)-N,N-dimethylbenzamide]",Emax,"Homo sapiens, A549, 7 h",52.6%
same,EC50,,10.6 nM
"CN(C)C(=O)c1ccc(-c2ccc(C(c3ccccc3)C(C)(C)C(=O)Nc3nncs3)s2)cc1 (stereo not drawn) [Example 87, 4-(5-(2,2-dimethyl-3-oxo-1-phenyl-3-(1,3,4-thiadiazol-2-ylamino)propyl)-2-thienyl)-N,N-dimethylbenzamide]",Emax,"Homo sapiens, A549, 7 h",41.1%
same,EC50,"Homo sapiens, A549, 7 h",8.49 nM
"CCN(C)C(=O)c1ccc(-c2ccc([C@@H](c3cccc(F)c3)[C@@H](C)C(=O)Nc3nccs3)s2)cc1 [Example 143, N-ethyl-4-(5-((1R,2R)-1-(3-fluorophenyl)-2-methyl-3-oxo-3-(1,3-thiazol-2-ylamino)propyl)-2-thienyl)-N-methylbenzamide]",Emax,"Homo sapiens, A549, 7 h",63.6%
same,EC50,"Homo sapiens, A549, 7 h",16.9 nM
"CC(C)(C(=O)Nc1nncs1)C(c1ccccc1)c1ccc(N2CCOCC2)nc1 (stereo not drawn) [Example 13, 2,2-dimethyl-3-(6-(4-morpholinyl)-3-pyridinyl)-3-phenyl-N-1,3,4-thiadiazol-2-ylpropanamide]",Emax,"Homo sapiens, A549, 7 h",42.2%
same,EC50,"Homo sapiens, A549, 7 h",245 nM
"CC(C)(C(=O)Nc1nncs1)C(c1cccc(F)c1)c1ccc(-c2ccc(C(=O)N3CCCC3)cc2)s1 (stereo not drawn) [Example 41, 3-(3-fluorophenyl)-2,2-dimethyl-3-(5-(4-(1-pyrrolidinylcarbonyl)phenyl)-2-thienyl)-N-1,3,4-thiadiazol-2-ylpropanamide]",Emax,"Homo sapiens, A549, 7 h",65.5%
same,EC50,"Homo sapiens, A549, 7 h",6.5 nM
"CN(C)C(=O)c1ccc(-c2ccc(C(c3ccccc3)C(C)(C)C(=O)Nc3nccs3)s2)cc1 (stereo not drawn) [Example 54, 4-(5-(2,2-Dimethyl-3-oxo-1-phenyl-3-(1,3-thiazol-2-ylamino)propyl)-2-thienyl)-N,N-dimethylbenzamide]",Emax,"Homo sapiens, A549, 7 h",62.4%
same,EC50,"Homo sapiens, A549, 7 h",9.45 nM
"C[C@@H](C(=O)Nc1nncs1)[C@H](c1cccc(F)c1)c1ccc(-c2ccc(C(=O)N3CCOCC3)c(Cl)c2)s1 [Example 111, (2R,3R)-3-(5-(3-chloro-4-(4-morpholinylcarbonyl)phenyl)-2-thienyl)-3-(3-fluorophenyl)-2-methyl-N-1,3,4-thiadiazol-2-ylpropanamide]",Emax,"Homo sapiens, A549, 7 h",53.3%
same,EC50,"Homo sapiens, A549, 7 h",21.2 nM
"C[C@@H](C(=O)Nc1nncs1)[C@H](c1cccc(F)c1)c1ccc(-c2ccc(C(=O)N(C)C)c(Cl)c2)s1 [Example 110, 2-Chloro-4-(5-((1R,2R)-1-(3-fluorophenyl)-2-methyl-3-oxo-3-(1,3,4-thiadiazol-2-ylamino)propyl)-2-thienyl)-N,N-dimethylbenzamide]",Emax,"Homo sapiens, A549, 7 h",47%
same,EC50,"Homo sapiens, A549, 7 h",24.6 nM
"CC(C)(C(=O)Nc1nncs1)C(c1cc(F)cc(F)c1)c1ccc(-c2ccc(C(=O)N3CCOCC3)cc2)s1 (stereo not drawn) [Example 89, 3-(3,5-difluorophenyl)-2,2-dimethyl-3-(5-(4-(4-morpholinylcarbonyl)phenyl)-2-thienyl)-N-1,3,4-thiadiazol-2-ylpropanamide]",Emax,"Homo sapiens, A549, 7 h",36.7%
same,EC50,"Homo sapiens, A549, 7 h",2.41 nM
"COc1ccc(-c2ccc(C(c3ccccc3)C(C)(C)C(=O)Nc3nccs3)cn2)cc1 (stereo not drawn) [Example 26, 3-(6-(4-methoxyphenyl)-3-pyridinyl)-2,2-dimethyl-3-phenyl-N-1,3-thiazol-2-ylpropanamide]",Emax,"Homo sapiens, A549, 7 h",41.4%
same,EC50,"Homo sapiens, A549, 7 h",316 nM
"C[C@@H](C(=O)Nc1nncs1)[C@H](c1cccc(F)c1)c1ccc(-c2ccc(C(=O)N3CCC(F)(F)C3)cc2)s1 [Example 121, (2R,3R)-3-(5-(4-((3,3-difluoro-1-pyrrolidinyl)carbonyl)phenyl)-2-thienyl)-3-(3-fluorophenyl)-2-methyl-N-1,3,4-thiadiazol-2-ylpropanamide]",Emax,"Homo sapiens, A549, 7 h",28.7%
same,EC50,"Homo sapiens, A549, 7 h",66.8 nM
"CCN(C)C(=O)c1ccc(-c2ccc(C(c3ccccc3)C(C)(C)C(=O)Nc3nncs3)s2)cc1 (stereo not drawn) [Example 88, 4-(5-(2,2-dimethyl-3-oxo-1-phenyl-3-(1,3,4-thiadiazol-2-ylamino)propyl)-2-thienyl)-N-ethyl-N-methylbenzamide]",AP-1 Max % inh (Cellular Transrepression Assay),,43.56 % inh
same,EC50,,15.7 nM
"CCN(C)C(=O)c1ccc(-c2ccc(C(c3ccccc3)C(C)C(=O)Nc3nncs3)s2)cc1 (single isomer, unassigned) [Example 151, N-ethyl-N-methyl-4-(5-(2-methyl-3-oxo-1-phenyl-3-(1,3,4-thiadiazol-2-ylamino)propyl)-2-thienyl)benzamide]",AP-1 Max % inh (Cellular Transrepression Assay),,48.08 % inh
same,EC50,,203 nM
"CC(C)Oc1ccc(-c2ccc([C@@H](c3cccc(F)c3)[C@@H](C)C(=O)Nc3nncs3)s2)cc1 [Example 113, (2R,3R)-3-(3-fluorophenyl)-3-(5-(4-isopropoxyphenyl)-2-thienyl)-2-methyl-N-1,3,4-thiadiazol-2-ylpropanamide]",Emax,"Homo sapiens, A549, 7 h",37.8%
same,EC50,"Homo sapiens, A549, 7 h",17.9 nM
"CCN(C)C(=O)c1ccc(-c2ccc([C@H](c3cccc(F)c3)C(C)(C)C(=O)Nc3nncs3)s2)cc1 [Example 68, N-ethyl-4-(5-((1R)-1-(3-fluorophenyl)-2,2-dimethyl-3-oxo-3-(1,3,4-thiadiazol-2-ylamino)propyl)-2-thienyl)-N-methylbenzamide]",Emax,"Homo sapiens, A549, 7 h",49.4%
same,EC50,"Homo sapiens, A549, 7 h",7.31 nM
"CC(C)(C(=O)Nc1nccs1)C(c1ccccc1)c1ccc(N2CCOCC2)nc1 (stereo not drawn) [Example 14, 2,2-dimethyl-3-(6-(4-morpholinyl)-3-pyridinyl)-3-phenyl-N-1,3-thiazol-2-ylpropanamide]",Emax,"Homo sapiens, A549, 7 h",46%
same,EC50,"Homo sapiens, A549, 7 h",62.9 nM
"CC(C)(C(=O)Nc1nccs1)C(c1cccc(F)c1)c1ccc(N2CCOCC2)s1 (stereo not drawn) [Example 10, 3-(3-fluorophenyl)-2,2-dimethyl-3-(5-(4-morpholinyl)-2-thienyl)-N-1,3-thiazol-2-ylpropanamide]",Emax,"Homo sapiens, A549, 7 h",40%
same,EC50,"Homo sapiens, A549, 7 h",700 nM
